These results are taken from ChEMBL document CHEMBL1201862, “PubChem BioAssay data set” (2004).

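Where inhibition never reached the appropriate level, the endpoint shown equals the highest concentration tested. Otherwise, values were interpolated linearly from a five-concentration, 48-hour dose response in 96-well plates. Here, GI50 denotes the concentration required for 50% inhibition of growth.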 Activity calls are given as the source filed them. Rule as the data show it: active = GI50 up to about 1.1 µM and inactive = higher.

Test systems include HOP-92; HCT-15; SF-268; K562; NCI/ADR-RES; NCI-H460; A498; PC-3; UACC-62; CAKI-1; OVCAR-8; SK-MEL-2; HCC 2998; UACC-257; TK-10; SR; OVCAR-5; SNB-19; BT-549; RXF 393.
What all share (assay): inhibition of tumour cell growth, NCI panel, 48 h

`N#Cc1nc(-c2cccc(-c3nc(C#N)c(N)o3)n2)oc1N`: the GI50 was > 100 µM (inactive) with HOP-92; over 100 µM with HCT-15; > 100 µM (inactive) in the experiment on SF-268; > 100 µM (inactive) in the experiment with K562; > 100 µM (inactive) in the experiment with NCI/ADR-RES; > 100 µM (inactive) in the experiment with NCI-H460. The GI50 in the experiment with A498, in the experiment on PC-3, in the experiment with UACC-62, with CAKI-1, in the experiment with OVCAR-8 and in the experiment with SK-MEL-2 was > 100 µM (inactive) throughout. The GI50 in the experiment with HCC 2998, in the experiment with UACC-257, in the experiment with TK-10, in the experiment on SR, in the experiment with OVCAR-5 and with SNB-19 was > 100 µM (inactive) in each case.
Regarding `CN1C2CCC1CN(CCOC(c1ccc(F)cc1)c1ccc(F)cc1)C2`, the GI50 in the experiment on HOP-92 was 21.4 µM (inactive); with HCT-15 it was 32.9 µM; in the experiment on SF-268, 46.7 µM (inactive); with K562, 20 µM (inactive); with NCI/ADR-RES it was 35.4 µM (inactive); in the experiment with BT-549 it was 43.4 µM (inactive). The GI50 in the experiment with NCI-H460 is 20.9 µM (inactive); in the experiment with A498, 24.8 µM (inactive); in the experiment with PC-3, 28.6 µM (inactive); with RXF 393, 16.5 µM (inactive); in the experiment on CAKI-1, 45.8 µM (inactive); with OVCAR-8, 32.4 µM (inactive). Besides, the GI50 with SK-MEL-2 was 23.8 µM (inactive); with UACC-257 it was 19.1 µM (inactive); in the experiment with TK-10, > 100 µM (inactive); with OVCAR-5, 56.6 µM (inactive); in the experiment on SNB-19, > 100 µM (inactive).
For the compound `COc1ccc2c(n1)Sc1nc3ccccc3nc1N2`, the GI50 in the experiment with HOP-92 is 78.5 µM (inactive); in the experiment with HCT-15, 24.9 µM; in the experiment on SF-268, 58.5 µM (inactive); in the experiment on K562, 30.3 µM (inactive); in the experiment with NCI/ADR-RES, 24.7 µM (inactive); in the experiment on BT-549, 41.6 µM (inactive). The GI50 was 63.1 µM (inactive) with NCI-H460; > 100 µM (inactive) in the experiment with A498; 89.5 µM (inactive) in the experiment with PC-3; 7.16 µM (inactive) in the experiment on UACC-62; 32.2 µM (inactive) with RXF 393; 88.3 µM (inactive) in the experiment with CAKI-1. In addition, the GI50 with OVCAR-8 is 16.2 µM (inactive); in the experiment on SK-MEL-2, > 100 µM (inactive); in the experiment with UACC-257 it was > 100 µM (inactive); with TK-10 it was 15.6 µM (inactive); with OVCAR-5, 56.1 µM (inactive); in the experiment on SNB-19, 30.3 µM (inactive).
As for `CCN(CC)C(=O)CCCCCCCCC1CO1` (stereo not drawn), the GI50 in the experiment on HOP-92 is > 100 µM (inactive); with HCT-15, over 100 µM; in the experiment on SF-268, > 100 µM (inactive); in the experiment with K562, > 100 µM (inactive); in the experiment on NCI/ADR-RES, > 100 µM (inactive); in the experiment with NCI-H460, > 100 µM (inactive). For the same compound, the GI50 with A498, with PC-3, in the experiment on UACC-62, with RXF 393, in the experiment on CAKI-1 and with OVCAR-8 was > 100 µM (inactive) throughout. Moreover, the GI50 with SK-MEL-2, in the experiment with UACC-257, in the experiment with TK-10, with SR, in the experiment on OVCAR-5 and with SNB-19 was > 100 µM (inactive) each time.
On to `C1=C(c2ccccc2)SC=C(c2ccccc2)S1`, for which the GI50 with HOP-92 is 17.1 µM (inactive); in the experiment with HCT-15 it was 26.2 µM; in the experiment with SF-268, 28.3 µM (inactive); with K562, 21 µM (inactive); in the experiment with NCI/ADR-RES, 19.9 µM (inactive); in the experiment with BT-549, 17.9 µM (inactive). The GI50 with NCI-H460 is 29.5 µM (inactive); with A498, 17.9 µM (inactive); in the experiment with PC-3, > 100 µM (inactive); in the experiment on UACC-62, 35.9 µM (inactive); with RXF 393, 1.05 µM (active); in the experiment on CAKI-1, 60.4 µM (inactive). Moreover, the GI50 in the experiment on OVCAR-8 was 44.8 µM (inactive); with UACC-257, 57.7 µM (inactive); in the experiment on TK-10 it was 28.8 µM (inactive); in the experiment on OVCAR-5, 44.4 µM (inactive); in the experiment with SNB-19, > 100 µM (inactive).
Consider `O=C(O)c1cncc(C(=O)O)c1`, for which the GI50 with HCT-15 was over 100 µM; with SF-268 it was > 100 µM (inactive); in the experiment with K562 it was > 100 µM (inactive); in the experiment on NCI/ADR-RES, > 100 µM (inactive); in the experiment on BT-549, > 100 µM (inactive); in the experiment with NCI-H460 it was > 100 µM (inactive). Besides, the GI50 with A498, in the experiment with PC-3, in the experiment with UACC-62, with RXF 393, in the experiment on CAKI-1 and with OVCAR-8 was > 100 µM (inactive) throughout. Further, the GI50 in the experiment with SK-MEL-2, in the experiment on UACC-257, with TK-10, with OVCAR-5 and in the experiment with SNB-19 was > 100 µM (inactive) each time.
As to `COc1ccc(Nc2nc(NNC(=O)Cc3ccccc3)nc(NNC(=O)c3ccncc3)n2)cc1`, the GI50 in the experiment with HOP-92 was > 10 µM (inactive); with HCT-15, over 10 µM; in the experiment with SF-268, > 10 µM (inactive); with K562, > 10 µM (inactive); in the experiment on NCI/ADR-RES, > 10 µM (inactive); with BT-549, > 10 µM (inactive). Moreover, the GI50 in the experiment with NCI-H460 was > 10 µM (inactive); with A498 it was > 10 µM (inactive); with UACC-62 it was 1.95 µM (inactive); in the experiment on CAKI-1, > 10 µM (inactive); in the experiment with OVCAR-8 it was > 10 µM (inactive); in the experiment on HCC 2998, > 10 µM (inactive). For the same compound, the GI50 with UACC-257, in the experiment with TK-10, in the experiment on SR, with OVCAR-5 and in the experiment with SNB-19 was > 10 µM (inactive) throughout.
For `CC(C)[C@H]1NC(=O)[C@H]2N=C(O[C@@H]2C)[C@@H]2CCCN2C(=O)[C@H](Cc2ccccc2)NC(=O)[C@@H]2COC(=N2)[C@@H](Cc2ccccc2)NC(=O)[C@@H]2COC1=N2`, the GI50 with HCT-15 was over 100 µM; with SF-268 it was > 100 µM (inactive); in the experiment with K562, > 100 µM (inactive); in the experiment on NCI/ADR-RES, > 100 µM (inactive); in the experiment with BT-549, > 100 µM (inactive); in the experiment with PC-3 it was > 100 µM (inactive). Also, the GI50 in the experiment on UACC-62, with RXF 393, with CAKI-1, with OVCAR-8, with SK-MEL-2 and in the experiment with HCC 2998 was > 100 µM (inactive) each time. Moreover, the GI50 in the experiment on UACC-257, in the experiment on TK-10, in the experiment with OVCAR-5 and with SNB-19 was > 100 µM (inactive) each time.
